# In patent US20240400620A1, “Compositions Containing Coronavirus Proteins and Epitopes” (priority 2021, published 2024):
# Like-named read-outs stand apart in the source and are kept apart here. No end group written: not given here.
# What was measured:
# [1] = tested on: splenocytes or lung leukocytes (IFNγ-producing peptide-specific T cells) from DNA-vaccinated HLA-B*0702 mice; assay: IFNγ-ELISpot, cells of DNA-vaccinated HLA-B*0702 Ifnar1^−/− mice stimulated with SARS-CoV-2 peptides; assay type: cell-based; details: 20 h; for IFNγ secretion (ELISpot): lung leukocytes, 10 μg/mL peptide; for IFNγ production (ELISpot) compared with unstimulated control cells: splenocytes, day 21, 10 μg/mL peptide
# [2] = tested on: activated CD4+ T cells from OC43-infected HLA-DRB1*0101 Ifnar1^−/− mice; assay type: cell-based; details: for expansion of peptide-reactive IFNγ+ CD4+ T cells: day 8 post-OC43 infection
# [3] = tested on: activated CD8+ T cells from OC43-infected HLA-B*0702 Ifnar1^−/− mice; assay type: cell-based; details: splenocytes
# [4] = tested on: activated (CD44+ CD62L−) CD8+ T cells from B.1.351-infected HLA-B*0702 Ifnar1^−/− mice; assay type: cell-based
# SARS-CoV-2 B.1.351 = details: mouse, in vivo
# [5] = tested on: splenocytes or lung leukocytes from DNA-vaccinated HLA-DRB1*0101 mice; assay type: cell-based; details: for stimulation of IFNγ production (ELISpot): splenocytes
# [6] = spleen, day 16 post-OC43 infection
sequence,measurement,setting,value
FPRGQGVPIN (misc_feature - Nucleoprotein; Severe acute respiratory syndrome-related coronavirus) [N66-75],IFNγ secretion (ELISpot),[1],significant IFNγ secretion
same,IFNγ production (ELISpot) compared with unstimulated control cells,[1],significantly higher levels of IFNγ
VPVAIHADQL (misc_feature - Spike; Severe acute respiratory syndrome-related coronavirus) [S620-629],IFNγ production (ELISpot) compared with unstimulated control cells,[1],significantly higher levels of IFNγ
GSLVVRCSFYEDFLE [ORF896-110],frequencies of cross-reactive IFNγ+ CD4+ T cells,[2]; [6],significantly increased
SPRRARSVA (misc_feature - Spike; Severe acute respiratory syndrome-related coronavirus) [S680-688],IFNγ production (ELISpot) compared with unstimulated control cells,[1],significantly higher levels of IFNγ
LSPRWYFYYLGTGPEAGL (misc_feature - Nucleocapsid; Severe acute respiratory syndrome-related coronavirus) [N104-121],expansion of peptide-reactive IFNγ+ CD8+ T cells,[3]; day 16 post-OC43 infection,9 fold
same,expansion of peptide-reactive IFNγ+/TNF+ CD8+ T cells,[3]; day 16 post-OC43 infection,12 fold
FARTRSMWSF (misc_feature - Membrane; Severe acute respiratory syndrome-related coronavirus) [M103-112],"frequencies of activated IFNγ+, IFNγ+/TNF+, IFNγ+/CD107a+ and IFNγ+/TNF+/IL-2+ CD8+ T cells compared with unstimulated cultures",[4],no significant expansion
LSPRWYFYYL [N104-113],"frequencies of N104-113-reactive polyfunctional (IFNγ+/TNF+, IFNγ+/TNF+/IL-2+) and cytotoxic multifunctional (IFNγ+/CD107a+) CD8+ T cells vs mock-immunized",SARS-CoV-2 B.1.351,significantly increased
LPKGIMMNV (misc_feature - ORF1ab; Severe acute respiratory syndrome-related coronavirus) [ORF1ab6834-6844],frequencies of activated IFNγ+ and IFNγ/TNF+ CD8+ T cells,[3]; day 8 post-OC43 infection,increase was significant
LKFPRGQGVPI (misc_feature - Nucleoprotein; Severe acute respiratory syndrome-related coronavirus) [N64-74],IFNγ secretion (ELISpot),[1],significant IFNγ secretion
same,IFNγ production (ELISpot) compared with unstimulated control cells,[1],significantly higher levels of IFNγ
APHGVVFL [S1056-1063],"frequencies of activated IFNγ+, IFNγ+/TNF+, IFNγ+/CD107a+ and IFNγ+/TNF+/IL-2+ CD8+ T cells compared with unstimulated cultures",[4],no significant expansion
same,IFNγ secretion (ELISpot),[1],significant IFNγ secretion
same,IFNγ production (ELISpot) compared with unstimulated control cells,[1],significantly higher levels of IFNγ
FPRGQGVPINT (misc_feature - Nucleoprotein; Severe acute respiratory syndrome-related coronavirus) [N66-76],"frequencies of activated IFNγ+, IFNγ+/TNF+, IFNγ+/CD107a+ and IFNγ+/TNF+/IL-2+ CD8+ T cells compared with unstimulated cultures",[4],no significant expansion
same,IFNγ secretion (ELISpot),[1],significant IFNγ secretion
same,IFNγ production (ELISpot) compared with unstimulated control cells,[1],significantly higher levels of IFNγ
KFPRGQGVPI (misc_feature - Nucleoprotein; Severe acute respiratory syndrome-related coronavirus) [N65-74],IFNγ secretion (ELISpot),[1],significant IFNγ secretion
same,IFNγ production (ELISpot) compared with unstimulated control cells,[1],significantly higher levels of IFNγ
YYRRATRRIRGGDGK (misc_feature - Nucleoprotein; Severe acute respiratory syndrome-related coronavirus) [N86-100],IL-2 production by CD4+ T cells,[2]; day 16 post-OC43 infection,stimulated IL-2 production
same,expansion of polyfunctional cross-reactive IFNγ+/TNF+ CD4+ T cells,[2]; [6],significantly expanded
LYLYALVYFLQSINF [ORF3a106-120],IL-2 production by CD4+ T cells,[2]; day 16 post-OC43 infection,stimulated IL-2 production
RCSFYEDFLEYHDVR [ORF8101-115],frequencies of cross-reactive IFNγ+ CD4+ T cells,[2],significantly increased
SPRRARSV (misc_feature - Spike; Severe acute respiratory syndrome-related coronavirus) [S680-687],IFNγ production (ELISpot) compared with unstimulated control cells,[1],significantly higher levels of IFNγ
LNTLVKQLSSNFGAI [S959-973],stimulation of IFNγ production (ELISpot),[5],significant stimulation of IFNγ production
VLAAVYRINWITGGI (misc_feature - Membrane; Severe acute respiratory syndrome-related coronavirus) [M66-80],expansion of peptide-reactive IFNγ+ CD4+ T cells,[2]; spleen,statistically significant
QSINFVRIIMRLWLC [ORF3a116-130],expansion of peptide-reactive IFNγ+ CD4+ T cells,[2]; spleen,statistically significant
SPRWYFYYLG (misc_feature - Nucleoprotein; Severe acute respiratory syndrome-related coronavirus) [N105-114],IFNγ production (ELISpot) compared with unstimulated control cells,[1],significantly higher levels of IFNγ
TNSPRRARSVA (misc_feature - Spike; Severe acute respiratory syndrome-related coronavirus) [S678-688],"frequencies of activated IFNγ+, IFNγ+/TNF+, IFNγ+/CD107a+ and IFNγ+/TNF+/IL-2+ CD8+ T cells compared with unstimulated cultures",[4],no significant expansion
same,IFNγ production (ELISpot) compared with unstimulated control cells,[1],significantly higher levels of IFNγ
PKEITVATSRTLSYY (misc_feature - Membrane; Severe acute respiratory syndrome-related coronavirus) [M165-179],stimulation of IFNγ production (ELISpot),[5],significant stimulation of IFNγ production
LPKEITVAT (misc_feature - Membrane; Severe acute respiratory syndrome-related coronavirus) [M164-172],"frequencies of activated IFNγ+, IFNγ+/TNF+, IFNγ+/CD107a+ and IFNγ+/TNF+/IL-2+ CD8+ T cells compared with unstimulated cultures",[4],no significant expansion
TSNFRVQPTESIVRF [S315-329],stimulation of IFNγ response (ELISpot),[5]; lung leukocytes,significantly stimulated a response
same,stimulation of IFNγ production (ELISpot),[5],significant stimulation of IFNγ production
same,IFNγ response (ELISpot),[5]; splenocytes and lung leukocytes,capable of stimulating both splenocytes and lung leukocytes
